Experiments:
Type in all cases: cell-based
[1] = tested on: Paenibacillus larvae subsp. larvae; assay: MIC by broth microdilution, bee pathogens; details: range 1000 ppm to 0.25 ppm
Description: (§1) We tested allicia (Allisure™ Liquid) activity against several species of entomopathogenic bacteria (Paenibacillus larvae subsp. larvae, Paenibacillus larvae subsp. pulvifaciens) and fungi (Ascosphaera apis and Ascosphaera aggregata) using broth microdilution method to determine minimum inhibitory concentration (MIC) and the agar diffusion test (Kirby-Bauer) to determine zone of inhibition. Bacterial spores were isolated from the diseased honey bee larval samples. A small aliquot of heat-treated bacterial spores was suspended in 100 μl of phosphate buffered saline-pH 7.2 (PBS) and plated on semi-selective J. Agar medium, containing Nalidixic and Pipemidic acid (Alippi, A M (1995) Detection of Bacillus larvae spores in Argentinian honeys by using a semi-selective medium. Microbiologia 1995 11(3): 343-50; and Govan, V A; Allsopp, M H; Davison, S A (1999) PCR Detection Method for Rapid Identification of Paenibacillus larvae. Applied and Environmental Microbiology 65(5): 2243-2245.
(§2) The plates were incubated at 33° C. in air containing 6% CO2 and 95% RH. The initial species identification was based on morphological, biological and cultural characteristics. The bacterial culture was tested for a catalase reaction (Leboffe, M. J and Pierce, B e (1999) A photographic atlas for the microbiology laboratory. Morton Publishing Company. 254 pp). The bacterial colonies were characterized by shape, margins and color. Gram-positive stained smears (Gram-stain Reagents Kit, EMD Chemicals Inc., NJ) were examined for morphological identification of vegetative cells and spores.
(§3) DNA based PCR identification was performed to corroborate identification of the bacterial species. Bacterial cells from culture plates were added directly to 30 μl of PCR reaction. The PCR primers used in the reaction were based on the 16S RNA sequence to selectively amplify a fragment of 973 by unique to P. larvae (Govan et al., 1999). The PCR products were visualized by 0.8% agarose gel electrophoresis in TAE buffer and ethidium bromide staining. The reference strains of bacteria were used as a control in PCR reactions and were provided by the National Center for Agricultural Research, Peoria, Ill. P. l. larvae (NRRL B-3560, B-2605) and P. l. palvifaciens (NRRL B-3688, B-3685, B-3689, NRS-1687, P. alvei B383).
(§4) Positive controls contained the antibiotic Tylosin (Tylan® 50, Elanco Animal Health Inc., IN) and negative controls contained no antibiotics. […] The optical densities of cultures (OD 600) were recorded 24 h and 48 h post inoculation, depending on the growth rate of the microbial species. […] Minimum bactericidal concentration values (NBC) were determined for allicin by plating out 100 μl of bacterial cultures derived from the MIC assay. […]

[2] = tested on: Paenibacillus larvae subsp. pulvifaciens; assay: MIC by broth microdilution, bee pathogens; details: range 1000 ppm to 0.25 ppm
Description: as §1, §2, §3, §4

[3] = tested on: Ascosphaera aggregata; assay: Disk diffusion test (Kirby-Bauer), zone of inhibition; details: 6 mm paper disc containing 5 μg of tylosin
Description: (§5) Allicin (Allisure™ Liquid) was tested against bacterial and fungal pathogens using a standard disk diffusion method (per Norrell & Messley). The aliquots of bacterial or fungal spores (100 μl of approximately 10^8-10^9 spores/ml) were plated on Mueller-Hinton agar medium, 4.0 mm depth. The 6 mm paper discs containing 250 μg of allicin or 5 μg of tylosin (positive control) were placed in the center of each plate. Plates were incubated at 33° C. and 6% CO2 and a zone of inhibition was measured 24 h, 48 h or 76 h post inoculation depending on the microbial species. All experiments were replicated at least three times.

[4] = tested on: Ascosphaera apis; assay: as above; details: 6 mm paper disc containing 5 μg of tylosin
Description: as §5

[5] = tested on: Paenibacillus larvae subsp. larvae; assay: as above; details: 6 mm paper disc containing 5 μg of tylosin
Description: as §5

[6] = tested on: Paenibacillus larvae subsp. pulvifaciens; assay: as above; details: 6 mm paper disc containing 5 μg of tylosin
Description: as §5

For `CC[C@H]1OC(=O)C[C@@H](O)[C@H](C)[C@@H](O[C@@H]2O[C@H](C)[C@@H](O[C@H]3C[C@@](C)(O)[C@@H](O)[C@H](C)O3)[C@H](N(C)C)[C@H]2O)[C@@H](CC=O)C[C@@H](C)C(=O)/C=C/C(C)=C/[C@@H]1CO[C@@H]1O[C@H](C)[C@@H](O)[C@@H](OC)[C@H]1OC` [tylosin, reference compound], the MIC [1] was < 0.25 µg/mL, the MIC [2] was < 0.25 µg/mL and the zone of inhibition [3] was 0.0 mm. For the same compound, the zone of inhibition [4] was 0.0 mm, the “growth inhibition in agar diffusion test” value [5] was “completely inhibited” and the zone of inhibition [6] was 14-16 mm.

— patent publication US20090275667A1, “USE OF ALLICIN AS PRESERVATIVE, AS DISINFECTANT, AS ANTIMICROBIAL OR AS BIOCIDAL AGENT” (Stone Island Holdings Ltd, priority 2003, published 2009)
